From ChEMBL document CHEMBL1156482, “Molecular mechanism of action of monocyclam versus bicyclam non-peptide antagonists in the CXCR4 chemokine receptor” (J Biol Chem, 2007)

How the values were obtained:
[1] = test system: C-X-C chemokine receptor type 4 (Homo sapiens), P61073 [N176A]; assay: (§1) Displacement of [125I]12G5 antibody from extracellular loop 2 of human CXCR4 N176A mutant expressed in COS7 cells; format: cell-based; conditions: COS-7
[2] = target: C-X-C chemokine receptor type 4 (Homo sapiens, UniProt P61073, N176A); assay: as §1; format: cell-based, COS-7
[3] = test system: C-X-C chemokine receptor type 4 (Homo sapiens), P61073 [H113A]; assay: (§2) Antagonist activity at human CXCR4 H113A mutant expressed in COS7 cells coexpressing G protein Gqi4myr assessed as inhibition of CXCL12-induced phosphatidylinositol turnover; format: functional, cell-based; conditions: COS-7
[4] = target: C-X-C chemokine receptor type 4 (Homo sapiens, UniProt P61073, H113A); assay: as §2; format: functional, cell-based, COS-7
[5] = target: C-X-C chemokine receptor type 4 (Homo sapiens, UniProt P61073, L120F); assay: (§3) Antagonist activity at human CXCR4 L120F mutant expressed in COS7 cells coexpressing G protein Gqi4myr assessed as inhibition of CXCL12-induced phosphatidylinositol turnover; format: functional, cell-based, COS-7
[6] = test system: C-X-C chemokine receptor type 4 (Homo sapiens), P61073 [L120F]; assay: as §3; format: functional, cell-based; conditions: COS-7
[7] = test system: C-X-C chemokine receptor type 4 (Homo sapiens), P61073 [D187A]; assay: (§4) Displacement of [125I]12G5 antibody from extracellular loop 2 of human CXCR4 D187A mutant expressed in COS7 cells; format: cell-based; conditions: COS-7
[8] = target: C-X-C chemokine receptor type 4 (Homo sapiens, UniProt P61073, D187A); assay: as §4; format: cell-based, COS-7
[9] = test system: C-X-C chemokine receptor type 4 (Homo sapiens), P61073 [H203A]; assay: (§5) Displacement of [125I]12G5 antibody from transmembrane domain 5 of human CXCR4 H203A mutant expressed in COS7 cells; format: cell-based; conditions: COS-7
[10] = target: C-X-C chemokine receptor type 4 (Homo sapiens, UniProt P61073, H203A); assay: as §5; format: cell-based, COS-7
[11] = target: C-X-C chemokine receptor type 4 (Homo sapiens, UniProt P61073, D182A); assay: (§6) Displacement of [125I]12G5 antibody from extracellular loop 2 of human CXCR4 D182A mutant expressed in COS7 cells; format: cell-based, COS-7
[12] = test system: C-X-C chemokine receptor type 4 (Homo sapiens), P61073 [D182A]; assay: as §6; format: cell-based; conditions: COS-7
[13] = test system: C-X-C chemokine receptor type 4 (Homo sapiens), P61073 [V196A]; assay: (§7) Antagonist activity at human CXCR4 V196A mutant expressed in COS7 cells coexpressing G protein Gqi4myr assessed as inhibition of CXCL12-induced phosphatidylinositol turnover; format: functional, cell-based; conditions: COS-7
[14] = target: T1, C-X-C chemokine receptor type 4 (Homo sapiens, UniProt P61073, V196A); assay: as §7; format: functional, cell-based, COS-7
[15] = test system: Human immunodeficiency virus 1; assay: Antiviral activity against HIV1 clinical isolate 10 infected in U87.CD4 cells expressing human CXCR4 D262N mutant; format: functional, organism-based; conditions: Human immunodeficiency virus 1, U87.CD4
[16] = test system: C-X-C chemokine receptor type 4 (Homo sapiens), P61073 [V196A]; assay: (§8) Displacement of [125I]12G5 antibody from transmembrane domain 5 of human CXCR4 V196A mutant expressed in COS7 cells; format: cell-based; conditions: COS-7
[17] = target: T1, C-X-C chemokine receptor type 4; assay: as §8; format: cell-based, COS-7
[18] = target: T2, C-X-C chemokine receptor type 4 (Homo sapiens, UniProt P61073, T287A); assay: (§9) Displacement of [125I]12G5 antibody from transmembrane domain 7 of human CXCR4 T287A mutant expressed in COS7 cells; format: cell-based, COS-7
[19] = test system: C-X-C chemokine receptor type 4 (Homo sapiens), P61073 [T287A]; assay: as §9; format: cell-based; conditions: COS-7
[20] = target: T2, C-X-C chemokine receptor type 4; assay: (§10) Antagonist activity at human CXCR4 T287A mutant expressed in COS7 cells coexpressing G protein Gqi4myr assessed as inhibition of CXCL12-induced phosphatidylinositol turnover; format: functional, cell-based, COS-7
[21] = test system: C-X-C chemokine receptor type 4 (Homo sapiens), P61073 [T287A]; assay: as §10; format: functional, cell-based; conditions: COS-7
[22] = test system: C-X-C chemokine receptor type 4 (Homo sapiens), P61073 [E288A]; assay: (§11) Displacement of [125I]12G5 antibody from transmembrane domain 7 of human CXCR4 E288A mutant expressed in COS7 cells; format: cell-based; conditions: COS-7
[23] = target: C-X-C chemokine receptor type 4 (Homo sapiens, UniProt P61073, E288A); assay: as §11; format: cell-based, COS-7
[24] = test system: Human immunodeficiency virus 1; assay: Antiviral activity against HIV1 NL43 infected in U87.CD4 cells expressing human wild type CXCR4; format: functional, organism-based; conditions: Human immunodeficiency virus 1, NL43, U87.CD4
[25] = test system: Human immunodeficiency virus 1; assay: Antiviral activity against HIV1 NDK infected in U87.CD4 cells expressing human CXCR4 E288A mutant; format: functional, organism-based; conditions: Human immunodeficiency virus 1, NDK
[26] = test system: C-X-C chemokine receptor type 4 (Homo sapiens), P61073 [D262N]; assay: (§12) Displacement of [125I]12G5 antibody from transmembrane domain 6 of human CXCR4 D262N mutant expressed in COS7 cells; format: cell-based; conditions: COS-7
[27] = target: C-X-C chemokine receptor type 4 (Homo sapiens, UniProt P61073, D262N); assay: as §12; format: cell-based, COS-7
[28] = target: C-X-C chemokine receptor type 4 (Homo sapiens, UniProt P61073, Q200A); assay: (§13) Antagonist activity at human CXCR4 Q200A mutant expressed in COS7 cells coexpressing G protein Gqi4myr assessed as inhibition of CXCL12-induced phosphatidylinositol turnover; format: functional, cell-based, COS-7
[29] = test system: C-X-C chemokine receptor type 4 (Homo sapiens), P61073 [Q200A]; assay: as §13; format: functional, cell-based; conditions: COS-7
[30] = test system: Human immunodeficiency virus 1; assay: Antiviral activity against HIV1 NL43 infected in U87.CD4 cells expressing human CXCR4 D171N mutant; format: functional, organism-based; conditions: Human immunodeficiency virus 1, NL43, U87.CD4
[31] = test system: Human immunodeficiency virus 1; assay: Antiviral activity against HIV1 clinical isolate 10 infected in U87.CD4 cells expressing human CXCR4 D171ND262N mutant; format: functional, organism-based; conditions: Human immunodeficiency virus 1, U87.CD4
[32] = target: C-X-C chemokine receptor type 4 (Homo sapiens, UniProt P61073, Q200W); assay: (§14) Displacement of [125I]12G5 antibody from transmembrane domain 5 of human CXCR4 Q200W mutant expressed in COS7 cells; format: cell-based, COS-7
[33] = test system: C-X-C chemokine receptor type 4 (Homo sapiens), P61073 [Q200W]; assay: as §14; format: cell-based; conditions: COS-7
[34] = target: C-X-C chemokine receptor type 4 (Homo sapiens, UniProt P61073, G207W); assay: (§15) Displacement of [125I]12G5 antibody from transmembrane domain 5 of human CXCR4 G207W mutant expressed in COS7 cells; format: cell-based, COS-7
[35] = test system: C-X-C chemokine receptor type 4 (Homo sapiens), P61073 [G207W]; assay: as §15; format: cell-based; conditions: COS-7
[36] = target: C-X-C chemokine receptor type 4 (Homo sapiens, UniProt P61073, F172A); assay: (§16) Antagonist activity at human CXCR4 F172A mutant expressed in COS7 cells coexpressing G protein Gqi4myr assessed as inhibition of CXCL12-induced phosphatidylinositol turnover; format: functional, cell-based, COS-7
[37] = test system: C-X-C chemokine receptor type 4 (Homo sapiens), P61073 [F172A]; assay: as §16; format: functional, cell-based; conditions: COS-7
[38] = test system: Human immunodeficiency virus 1; assay: Antiviral activity against HIV1 NDK infected in U87.CD4 cells expressing human CXCR4 D171N mutant; format: functional, organism-based; conditions: Human immunodeficiency virus 1, NDK
[39] = target: C-X-C chemokine receptor type 4 (Homo sapiens, UniProt P61073, S263A); assay: (§17) Displacement of [125I]12G5 antibody from transmembrane domain 6 of human CXCR4 S263A mutant expressed in COS7 cells; format: cell-based, COS-7
[40] = test system: C-X-C chemokine receptor type 4 (Homo sapiens), P61073 [S263A]; assay: as §17; format: cell-based; conditions: COS-7

Sequence of C-X-C chemokine receptor type 4 (Homo sapiens), P61073 [T287A] (P61073 whole entry T287A, the tested form may be a part): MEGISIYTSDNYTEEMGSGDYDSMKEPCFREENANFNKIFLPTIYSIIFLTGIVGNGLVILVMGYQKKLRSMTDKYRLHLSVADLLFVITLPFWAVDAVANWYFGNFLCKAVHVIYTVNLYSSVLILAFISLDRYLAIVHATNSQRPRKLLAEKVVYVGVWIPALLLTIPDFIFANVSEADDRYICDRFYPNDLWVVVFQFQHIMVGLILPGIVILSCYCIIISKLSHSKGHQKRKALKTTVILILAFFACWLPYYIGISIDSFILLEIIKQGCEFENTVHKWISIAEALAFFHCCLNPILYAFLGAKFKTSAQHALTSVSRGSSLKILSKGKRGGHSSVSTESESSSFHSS
T2 sequence (P61073 whole entry T287A, the tested form may be a part): as above
T1 sequence (P61073 whole entry V196A): as the sequence (P61073 whole entry T287A, the tested form may be a part) above, with V196A, A287T counted along it
Sequence of C-X-C chemokine receptor type 4 (Homo sapiens), P61073 [V196A] (P61073 whole entry V196A, the tested form may be a part): as the sequence (P61073 whole entry T287A, the tested form may be a part) above, with V196A, A287T counted along it
Sequence of C-X-C chemokine receptor type 4 (Homo sapiens), P61073 [N176A] (P61073 whole entry N176A): as the sequence (P61073 whole entry T287A, the tested form may be a part) above, with N176A, A287T counted along it
Sequence of C-X-C chemokine receptor type 4 (Homo sapiens, UniProt P61073, N176A) (P61073 whole entry N176A): as the sequence (P61073 whole entry T287A, the tested form may be a part) above, with N176A, A287T counted along it
Sequence of C-X-C chemokine receptor type 4 (Homo sapiens, UniProt P61073, E288A) (P61073 whole entry E288A): as the sequence (P61073 whole entry T287A, the tested form may be a part) above, with A287T, E288A counted along it
Sequence of C-X-C chemokine receptor type 4 (Homo sapiens), P61073 [E288A] (P61073 whole entry E288A, the tested form may be a part): as the sequence (P61073 whole entry T287A, the tested form may be a part) above, with A287T, E288A counted along it
Sequence of C-X-C chemokine receptor type 4 (Homo sapiens, UniProt P61073, Q200A) (P61073 whole entry Q200A): as the sequence (P61073 whole entry T287A, the tested form may be a part) above, with Q200A, A287T counted along it
Sequence of C-X-C chemokine receptor type 4 (Homo sapiens), P61073 [Q200A] (P61073 whole entry Q200A): as the sequence (P61073 whole entry T287A, the tested form may be a part) above, with Q200A, A287T counted along it
Sequence of C-X-C chemokine receptor type 4 (Homo sapiens, UniProt P61073, D187A) (P61073 whole entry D187A, the tested form may be a part): as the sequence (P61073 whole entry T287A, the tested form may be a part) above, with D187A, A287T counted along it
Sequence of C-X-C chemokine receptor type 4 (Homo sapiens), P61073 [D187A] (P61073 whole entry D187A): as the sequence (P61073 whole entry T287A, the tested form may be a part) above, with D187A, A287T counted along it
Sequence of C-X-C chemokine receptor type 4 (Homo sapiens, UniProt P61073, Q200W) (P61073 whole entry Q200W, the tested form may be a part): as the sequence (P61073 whole entry T287A, the tested form may be a part) above, with Q200W, A287T counted along it

## c1ccc(CNCc2ccc(CN3CCCNCCNCCCNCC3)cc2)nc1
[1]
  logKi: -6.98
[2]
  Ki: 100 nM
[3]
  logIC50: -6.89
[4]
  Ki: 130 nM
[5]
  Ki: 10 nM
[6]
  logIC50: -8.18
[7]
  logKi: -6.27
[8]
  Ki: 530 nM
[9]
  logKi: -6.35
[10]
  Ki: 440 nM
[11]
  Ki: 40 nM
[12]
  logKi: -7.44
[13]
  logIC50: -7.71
[14]
  Ki: 200 nM
[15]
  IC50: 3.83 µM
[16]
  logKi: -5.74
[17]
  Ki: 1800 nM
[18]
  Ki: 2000 nM
[19]
  logKi: -5.71
[20]
  Ki: 10 nM
[21]
  logIC50: -8.1
[22]
  logKi: -4.94
[23]
  Ki: 11 µM
[24]
  IC50: 36 µM
[25]
  IC50: > 5.5 µM
[26]
  logKi: -3.22
[27]
  Ki: 600 µM
[28]
  Ki: 150 nM
[29]
  logIC50: -6.84
[30]
  IC50: 164 µM
[31]
  IC50: 4.04 µM
[32]
  Ki: 1200 nM
[33]
  logKi: -5.94
[34]
  Ki: 130 nM
[35]
  logKi: -6.88
[36]
  Ki: 10 nM
[37]
  logIC50: -7.93
[38]
  IC50: 22 µM
[39]
  Ki: 530 nM
[40]
  logKi: -6.27
